Data set [1] addresses T1, Ceramide glucosyltransferase (Homo sapiens, UniProt Q16739).
T1 sequence (Q16739 whole entry): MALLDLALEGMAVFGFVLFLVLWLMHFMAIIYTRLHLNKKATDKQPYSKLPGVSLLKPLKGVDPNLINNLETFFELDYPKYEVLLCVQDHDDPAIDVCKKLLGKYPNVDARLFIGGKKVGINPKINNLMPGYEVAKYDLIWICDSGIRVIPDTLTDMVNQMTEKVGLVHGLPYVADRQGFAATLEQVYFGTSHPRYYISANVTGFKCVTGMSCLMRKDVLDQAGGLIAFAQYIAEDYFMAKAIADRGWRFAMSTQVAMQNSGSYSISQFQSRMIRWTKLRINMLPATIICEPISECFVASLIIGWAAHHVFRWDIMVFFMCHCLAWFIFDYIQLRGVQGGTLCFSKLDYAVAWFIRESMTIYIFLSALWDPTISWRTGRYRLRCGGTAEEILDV
The data set is described as follows: Inhibition of human GCS using C8-ceramide and UDP-glucose as substrate incubated for 1 hr by RapidFire mass spectrometry.

The nature of data set [2]: 1-Octanol/aqueous buffer partition coefficient, logD of the compound at pH 7.4 by chromatographic method. The data set is classed as physicochemical.
The nature of data set [3]: Efflux ratio of apparent permeability from basolateral to apical side over apical to basolateral side in dog MDCK-MDR1 cells at 1 uM measured after 1 hr by LC-MS/MS analysis. The data set is classed as ADME, cell-based, Canis lupus familiaris.
Data set [4] can be described thus: Kinetic solubility of the compound in JP2 fluid at pH 6.8 by precipitation method. The data set is classed as physicochemical. The following applies: read-out: Kinetic_solubility.
The nature of data set [5]: Intrinsic clearance in mouse liver microsomes at 1 uM in presence of NADPH generating system assessed per mg protein by LC-MS/MS analysis. The data set is classed as ADME, Microsome. The following applies: read-out: CLH. In general terms: Microsomes from liver hold many membrane-bound enzymes, among them those of drug oxidation.
The target of the next data set is hERG (Homo sapiens, UniProt Q12809). Nature of the data set: Inhibition of hERG expressed in CHO-K1 cells at 10 uM incubated for 5 mins by whole cell-automated voltage clamp analysis. The data set is classed as toxicity, cell-based. The following applies: CHO-K1 cells expressing hERG. For orientation: hERG is a cardiac potassium channel; its block is linked to QT prolongation.
Sequence of hERG (Q12809 whole entry): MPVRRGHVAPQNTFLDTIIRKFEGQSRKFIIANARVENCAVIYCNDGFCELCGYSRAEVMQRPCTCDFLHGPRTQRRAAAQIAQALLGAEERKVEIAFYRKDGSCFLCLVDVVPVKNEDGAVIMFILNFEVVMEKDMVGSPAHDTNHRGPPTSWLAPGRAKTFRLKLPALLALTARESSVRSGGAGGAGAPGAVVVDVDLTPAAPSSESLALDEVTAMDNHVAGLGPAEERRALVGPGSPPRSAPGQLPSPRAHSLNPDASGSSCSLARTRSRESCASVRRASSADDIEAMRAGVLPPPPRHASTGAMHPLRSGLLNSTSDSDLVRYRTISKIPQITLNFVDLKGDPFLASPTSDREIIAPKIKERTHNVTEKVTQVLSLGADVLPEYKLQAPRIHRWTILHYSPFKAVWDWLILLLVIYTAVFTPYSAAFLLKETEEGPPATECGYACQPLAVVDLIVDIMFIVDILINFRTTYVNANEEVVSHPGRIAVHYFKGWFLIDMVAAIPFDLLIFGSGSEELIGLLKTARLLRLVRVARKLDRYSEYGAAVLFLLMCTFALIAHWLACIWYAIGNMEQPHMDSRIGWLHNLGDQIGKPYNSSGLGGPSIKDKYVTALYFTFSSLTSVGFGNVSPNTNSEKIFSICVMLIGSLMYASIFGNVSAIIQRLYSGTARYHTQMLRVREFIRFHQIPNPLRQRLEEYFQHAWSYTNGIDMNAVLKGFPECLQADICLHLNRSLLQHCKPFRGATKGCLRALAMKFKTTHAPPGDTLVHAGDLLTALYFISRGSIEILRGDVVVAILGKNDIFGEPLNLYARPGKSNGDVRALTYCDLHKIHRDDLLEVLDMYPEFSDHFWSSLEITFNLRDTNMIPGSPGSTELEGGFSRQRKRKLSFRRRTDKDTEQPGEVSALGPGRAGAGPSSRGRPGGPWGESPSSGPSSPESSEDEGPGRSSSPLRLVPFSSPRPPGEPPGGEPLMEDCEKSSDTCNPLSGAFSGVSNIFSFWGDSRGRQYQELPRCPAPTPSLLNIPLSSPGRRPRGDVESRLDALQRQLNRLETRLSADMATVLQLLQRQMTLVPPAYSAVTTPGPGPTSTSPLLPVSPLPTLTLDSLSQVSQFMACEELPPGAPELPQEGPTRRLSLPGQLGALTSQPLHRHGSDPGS

The target in data set [6] is T2, Ceramide glucosyltransferase (Homo sapiens) (UniProt Q16739).
T2 sequence (whole entry): T1 sequence (Q16739 whole entry)
Nature of the data set: Uncompetitive inhibition of GCS (unknown origin) using 1 to 70 uM C8-ceramide and 0.1 to 200 uM UDP-glucose as substrate incubated for 1 hr by RapidFire mass spectrometry.

≈ marks a conversion by molar mass, not a printed value. Calls of active or inactive are those of the source. No cut-off for these calls is given here.

For orientation: IC50 means the point on the concentration scale where inhibition reaches its midpoint. A low value points to inhibition by little substance. For orientation: chromatographic logD means lipophilicity estimated from chromatographic retention. Lower therefore signals lower lipophilicity. What is called efflux ratio is a quotient of directional permeabilities that is used to spot active efflux. In general, inhibition refers to the relative decrease from the control value, in per cent.

Regarding `CC(C)(O)c1ccc(NC(=O)c2cccn(-c3ccccc3OCC(F)(F)F)c2=O)cc1`, in data set [1], the IC50 was found to be 19 nM. The chromatographic logD in data set [2] was determined as 2.12. The efflux ratio at 1 h, 1 µM in data set [3] was 15.

For `COc1ccccc1-c1cncc2c1CN(c1ccccc1)C2=O`, the IC50 in data set [1] turned out to be 1300 nM. The chromatographic logD in data set [2] came out at 2.94. Moreover, in data set [4], the solubility kinetic amounted to 0.9 µg/mL (≈ 2.84 µM).

In data set [1], `CC(C)(O)c1ccc(NC(=O)c2cccc(-c3ccccc3OCC(F)(F)F)c2F)cc1` showed an IC50 of 45 nM. The chromatographic logD in data set [2] turned out to be 3.06. In addition, in data set [3], the efflux ratio at 1 h, 1 µM worked out at 1.9.

On to `O=C1c2ccnc(-c3ccc(F)cc3OC(F)(F)F)c2CN1c1ccc(F)cc1`, for which inhibition in data set [1] was half-maximal at 49 nM (IC50). The molecule further had a chromatographic logD in data set [2] of 3. Moreover, in data set [4], the solubility kinetic was below 0.15 µg/mL. For the same molecule, the microsomal CLint at 1 µM in data set [5] was 14 µL/min/mg. The inhibition at 5 min, 10 µM on hERG was found to be 51.4%. The efflux ratio at 1 h, 1 µM in data set [3] turned out to be 2.6.

`COc1ccccc1-c1cccc2c1CN(c1ccccc1)C2=O` yielded an IC50 in data set [1] of 2400 nM. The same molecule returned a chromatographic logD in data set [2] of 3.87. The solubility kinetic in data set [4] was below 0.1 µg/mL.

As for `CCCCCCCC(=O)N[C@H](CN1CCCC1)[C@H](O)c1ccc2c(c1)OCCO2`, in data set [6], the inhibition result is “Active”.

As to `COc1ccccc1-c1ccc2c(c1)CN(c1ccccc1)C2=O`, in data set [1], the IC50 was above 100000 nM.

For `COc1cc(F)ccc1-c1nccc2c1CN(c1ccc(F)cc1)C2=O`, the IC50 in data set [1] came to 4900 nM. Also, the microsomal CLint at 1 µM in data set [5] is 131 µL/min/mg.

Molecule `COc1ccccc1-c1nccc2c1CN(c1ccccc1)C2=O` returned an IC50 in data set [1] of 1900 nM. This molecule came in with a chromatographic logD in data set [2] of 2.84. Besides, in data set [4], the solubility kinetic was determined as 18 µg/mL (≈ 56.9 µM). In data set [5], the microsomal CLint at 1 µM is above 768 µL/min/mg.

Molecule `CC(C)(O)c1ccc(NC(=O)c2cccc(-c3ccccc3OCC(F)(F)F)n2)cc1` had an IC50 in data set [1] of 170 nM. For the same molecule, in data set [2], the chromatographic logD was 3.6. Besides, in data set [3], the efflux ratio at 1 h, 1 µM was determined as 2.2.

On to `CC(C)(O)c1ccc(NC(=O)c2cccc(-c3ccccc3OCC(F)(F)F)c2)cc1`, for which 3200 nM corresponded to half-maximal inhibition in data set [1] (IC50). Moreover, in data set [2], the chromatographic logD stood at 3.16. In data set [3], the efflux ratio at 1 h, 1 µM came out at 3.

As for `COc1ccccc1-c1nccc2c1CN(c1cccc(C)c1)C2=O`, half-maximal inhibition in data set [1] (IC50) was put at 4400 nM. The microsomal CLint at 1 µM in data set [5] was found to be 584 µL/min/mg.

The molecule `CS(=O)(=O)c1ccc(N2Cc3c(ccnc3-c3ccc(F)cc3OCC(F)(F)F)C2=O)cc1` displayed an IC50 in data set [1] of 630 nM. Further, in data set [2], the chromatographic logD turned out to be 1.86. On hERG, the inhibition at 5 min, 10 µM came to 23.7%. Moreover, the efflux ratio at 1 h, 1 µM in data set [3] was 32.

`CC(C)(O)COc1ccc(N2Cc3c(ccnc3-c3ccc(F)cc3OCC(F)(F)F)C2=O)cc1` gave an IC50 in data set [1] of 40 nM. Moreover, the chromatographic logD in data set [2] was found to be 2.67. Further, the inhibition at 5 min, 10 µM against hERG stood at 17.6%. Besides, the efflux ratio at 1 h, 1 µM in data set [3] was found to be 7.3.

`CC(C)(O)c1ccc(NC(=O)c2ccnn(-c3ccc(F)cc3OCC(F)(F)F)c2=O)cc1` showed an IC50 in data set [1] of 49 nM. In data set [2], this molecule gave a chromatographic logD of 2.55. Besides, the efflux ratio at 1 h, 1 µM in data set [3] is 6.6.

With `CN(C)C(=O)c1ccc(N2Cc3c(ccnc3-c3ccc(F)cc3OCC(F)(F)F)C2=O)cc1`, the IC50 in data set [1] worked out at 700 nM. Further, the chromatographic logD in data set [2] stood at 1.99. At hERG, this molecule had an inhibition at 5 min, 10 µM of 41.8%. Moreover, in data set [3], the efflux ratio at 1 h, 1 µM came out at 35.

For the molecule `COc1ccccc1-c1nccc2c1CN(C1CCCCC1)C2=O`, the IC50 in data set [1] is above 100000 nM. Besides, the microsomal CLint at 1 µM in data set [5] came to 727 µL/min/mg.

The molecule `COc1ccccc1-c1nccc2c1CN(c1ccccc1C)C2=O` registered an IC50 in data set [1] above 100000 nM. Further, the microsomal CLint at 1 µM in data set [5] was determined as 560 µL/min/mg.

`COc1cccc(-c2nccc3c2CN(c2ccccc2)C3=O)c1` gave an IC50 in data set [1] above 100000 nM. In data set [5], the microsomal CLint at 1 µM was above 768 µL/min/mg.

As to `COc1ccccc1-c1ccnc2c1CN(c1ccccc1)C2=O`, in data set [1], it took 17000 nM to reach half-maximal inhibition (IC50). The molecule also displayed a chromatographic logD in data set [2] of 2.81. For the same molecule, the solubility kinetic in data set [4] was 4 µg/mL (≈ 12.6 µM).

Regarding `O=C1c2ccnc(-c3ccccc3)c2CN1c1ccccc1`, in data set [1], the IC50 was above 100000 nM. Also, the microsomal CLint at 1 µM in data set [5] is above 768 µL/min/mg.

`COc1ccccc1-c1nccc2c1CN(c1ccc(C)cc1)C2=O` showed an IC50 in data set [1] of 97 nM. The microsomal CLint at 1 µM in data set [5] was above 768 µL/min/mg.

`CC(C)(C#N)c1ccc(N2Cc3c(ccnc3-c3ccc(F)cc3OCC(F)(F)F)C2=O)cc1` had an IC50 in data set [1] of 17 nM. The molecule further came in with a chromatographic logD in data set [2] of 2.86. Further, at hERG, the inhibition at 5 min, 10 µM came out at 39.4%. For the same molecule, the efflux ratio at 1 h, 1 µM in data set [3] came out at 4.

In data set [1], `COc1ccccc1-n1ncc2c1CN(c1ccccc1)C2=O` returned an IC50 of 4400 nM. The chromatographic logD in data set [2] is 2.45. In addition, in data set [4], the solubility kinetic is 22 µg/mL (≈ 72.1 µM).

In data set [1], `COc1ccccc1-c1nccc2c1CN(c1ccc(F)cc1)C2=O` returned an IC50 of 1000 nM. Moreover, the microsomal CLint at 1 µM in data set [5] is 509 µL/min/mg.

The record behind these values is ChEMBL document CHEMBL5046282, “Discovery of Brain-Penetrant Glucosylceramide Synthase Inhibitors with a Novel Pharmacophore” (J Med Chem, 2022).
